{"source": "patent US8097625B2", "about": "“Combination of sedative and a neurotransmitter modulator, and methods for improving sleep quality and treating depression” (priority 2003, dated 2012)", "test_system": "subjects with insomnia related to major depressive disorder", "assay": "DREAMDD clinical study: Hamilton Depression Rating Scale (HAMD17)", "format": "in vivo, human", "method": "The change from baseline to each double-blind, post-treatment visit in the HAM-D-17 score as well as the change from baseline to each double-blind, weekly, post-treatment assessments in the HAM-D-6 (Bech) scores and HAM-D-6 (Maier) scores was presented descriptively (n, mean, median, standard deviation, minimum, 25th percentile, median, 75th percentile, and maximum) by treatment. Treatment comparisons were performed at each assessed time point. The analysis compared the eszopiclone 3 mg group to placebo using an analysis of variance model (ANOVA) with treatment and site as fixed effects. The analysis was performed using the SAS MIXED procedure.\nHamilton Depression Rating Scale (HAM-D17): During this analysis, a medical professional evaluates the patient according to seventeen criteria by selecting the response that best characterizes the patient's behavior during the past week. The criteria and responses are based on that described in Br. J. Soc. Clin. Psychol. 6: 278-296 (1967) and are reproduced below. Question 1: Depressed mood (Sadness, hopeless, helpless, worthless); Response: 0—Absent, 1—These feeling states indicated only on questioning, 2—These feeling states spontaneously reported verbally, 3—Communicates feeling states non-verbally i.e., through facial expression, posture, voice, and tendency to weep, or 4—Patient report virtually only these feeling states in their spontaneous verbal and non-verbal communication. Question 2: Feeling of guilt; Response: 0—Absent, 1—Self reproach, feels they have let people down, 2—Ideas of guilt or rumination over past errors or sinful deeds, 3—Present illness is a punishment and/or has delusions of guilt, or 4—Hears accusatory or denunciatory voices and/or experiences threatening visual hallucinations. Question 3: Suicide; Response: 0—Absent, 1—Feels life is not worth living, 2—Wishes they were dead or any thoughts of possible death to self, 3—Suicide ideas or gesture, 4-Attempts at suicide (any serious attempt rates 4). Question 4: Insomnia early; Response: 0—No difficulty falling asleep; 1—Complains of occasional difficulty falling asleep—i.e., more than ½ hour; or 2—complains of nightly difficulty falling asleep. Question 5: Insomnia middle; Response: 0—No difficulty, 1—patient complains of being restless and disturbed during the night, or 2—Waking during the night—any getting out of bed rates 2 (except for purposes of voiding). Question 6: Insomnia Late; Response: 0—No difficulty, 1—Waking in early hours of the morning but goes back to sleep, or 2—Unable to fall asleep again if they get out of bed. […] Question 8: Retardation (Slowness of thought and speech; impaired ability to concentrate; decreased motor activity); Response: 0—Normal speech and thought, 1—Slight retardation at interview, 2—Obvious retardation at interview, 3—Interview difficult, or 4—Complete stupor. Question 9: Agitation; Response: 0—None; 1—Fidgetiness; 2—Playing with hands, hair, etc.; 3—Moving about, can't sit still; or 4—Hand wringing, nail biting, hair-pulling, biting of lips. Question 10: Anxiety psychic: 0—No difficulty, 1—Subjective tension and irritability, 2—Worrying about minor matters, 3—Apprehensive attitude apparent in face or speech, or 4—Fears expressed without questioning. Question 11: Anxiety somatic (Physiological concomitants of anxiety, such as:—Gastro-intestinal: dry mouth, wind, indigestion, diarrhea, cramps, belching.—Cardio-vascular: palpitations, headaches.—Respiratory: hyperventilation, sighing.—Urinary frequency—Sweating); Response: 0—Absent, 1—Mild, 2—Moderate, 3—Severe, or 4—Incapacitating. Question 12: Somatic symptoms gastro-intestinal; Response: 0—None, 1—Loss of appetite but eating without staff encouragement and/or heavy feelings in abdomen; or 2—Difficulty eating without staff urging and/or requests or requires laxatives or medication for bowels or medication for gastro-intestinal symptoms. […]", "data": [{"smiles": "CN1CCN(C(=O)OC2c3nccnc3C(=O)N2c2ccc(Cl)cn2)CC1", "note": "(single isomer, unassigned; (+)) [Eszopiclone, (+) 6-(5-chloro-2-pyridinyl)-6,7-dihydro-7-oxo-5H-pyrrolo[3,4b]pyrazin-5-yl 4-methylpiperazine-1-carboxylate]", "values": [{"measurement": "HAMD 17 differences in patients with more severe depression (baseline HAMD 17≧22)", "setting": "3 mg nightly + fluoxetine vs placebo", "result": "greater"}, {"measurement": "changes in HAMD17 scores", "setting": "Week 4, p=0.02 vs placebo, 3 mg nightly + fluoxetine 20 mg QAM", "result": "−9.9"}, {"measurement": "changes in HAMD17 scores", "setting": "Week 8, p<0.001 vs placebo, 3 mg nightly + fluoxetine", "result": "−13.8"}, {"measurement": "responders (50% decrease from baseline HAMD17)", "setting": "Week 8, p<0.009 vs placebo, 3 mg nightly + fluoxetine", "result": 74, "unit": "%"}, {"measurement": "remitters (HAMD17≦7)", "setting": "Week 8, p<0.02 vs placebo, 3 mg nightly + fluoxetine", "result": 54, "unit": "%"}, {"measurement": "HAMD17 with removal of insomnia items, versus placebo", "setting": "Week 8, p<0.03, 3 mg nightly + fluoxetine", "result": "significant differences"}, {"measurement": "augmentation effect versus agents currently used for augmentation therapy, such as lithium", "setting": "co-administration with fluoxetine", "result": "larger"}, {"measurement": "augmentation effect by severity of depression", "setting": "end of the 8 week treatment period", "result": "most pronounced in the most severely depressed patients"}]}]}
